Measured values from patent publication US11759462B2, “Spirocyclic compounds as tryptophan hydroxylase inhibitors” (priority 2013, dated 2023).
pIC50: −log10 of the molar value. Where two headings read alike, the source gives them in different places.

Experiments:
[1] = test system: jejunal mucosal 5-HT in mice (C57 BL6); assay: Intestinal 5-HT depletion assay (Example B, single 150 mg/kg oral dose); assay type: in vivo, mouse; settings: one day after oral administration of a single 150 mg/kg dose, P-value class (ANOVA)
Procedure, shortened: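 C57 BL6 mice received one 150 mg/kg oral gavage dose; jejunal mucosa was homogenized in acidic trichloroacetic acid buffer and 5-HT measured by HPLC. Levels normalized to BCA protein, expressed as mean percent reduction versus vehicle ± SEM; ANOVA significance.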

[2] = test system: jejunal mucosal 5-HT in mice (C57 BL6); assay: Reduction of mucosal 5-HT concentrations (Example C, repeated oral dosing); assay type: in vivo, mouse; settings: P-value class
Experimental: The efficacy of the TPH1 inhibitors of the invention was assessed for the ability to decrease intestinal serotonin concentration in mice. Mice (C57 BL6) were administered an oral dose of 10 or 50 mg/kg of the test article in the evening. […] Following an overnight fast, each animal was euthanized by exsanguination under isoflurane anesthesia. Jejunal intestinal mucosa was isolated and homogenized in […] of a buffer containing 0.3M trichloroacetic acid, 0.1M sodium acetate, 10 mM EDTA, 20 mM sodium bisulfate and 50 mM ascorbic acid. Following centrifugation the 5-HT levels in the supernatants were measured by HPLC. The remaining mucosal pellet was solubilized overnight at 37° C. in a 0.1% sodium dodecyl sulfate buffer in 0.1N NaOH followed by determination of protein concentrations using a BCA protein assay (Pierce, Rockford, Ill.). 5-HT levels were normalized to protein and data were expressed as mean percent reduction of mucosal 5-HT levels relative to vehicle control±SEM (percent 5-HT reduction). All animal studies were carried out with protocols approved by the Institutional Animal Care and Use Committee. P-values, indicating statistical significance of the data (ANOVA) are provided in the table: * refers to P<0.05,** refers to P<0.01, *** refers to P<0.005, and **** refers to P<0.0005.

[3] = target: T1, Recombinant human TPH1 (MBP tagged) (Homo sapiens, UniProt P17752); assay: TPH1 in vitro inhibition assay (kinetic fluorescence); assay type: biochemical
T1 construct: cloning full length human TPH1 cDNA in to a bacterial pMAL-c5E expression vector; made in house; host or cells: E. coli BL21 (DE3)
T1 sequence (P17752 1-444): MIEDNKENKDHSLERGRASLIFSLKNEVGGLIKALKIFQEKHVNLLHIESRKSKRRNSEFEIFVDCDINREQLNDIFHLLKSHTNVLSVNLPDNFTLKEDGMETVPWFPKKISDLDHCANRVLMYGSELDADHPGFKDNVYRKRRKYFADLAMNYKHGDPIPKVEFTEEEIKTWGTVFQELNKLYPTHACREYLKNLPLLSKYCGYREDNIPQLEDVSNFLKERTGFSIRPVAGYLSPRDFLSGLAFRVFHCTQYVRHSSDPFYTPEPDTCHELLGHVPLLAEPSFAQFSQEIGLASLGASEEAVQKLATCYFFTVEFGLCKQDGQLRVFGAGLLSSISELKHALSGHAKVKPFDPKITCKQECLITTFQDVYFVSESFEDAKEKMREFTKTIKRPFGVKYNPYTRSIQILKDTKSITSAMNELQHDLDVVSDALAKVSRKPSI
Procedure, shortened: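 Final mix: 15 nM MBP-TPH1, 30 μM Trp, 36 μM 6-methyltetrahydropterin, 25 μM ferrous ammonium sulfate, 50 mM MES pH 7.1, 1% DMSO, room temperature.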

[4] = after three oral doses (first 10 or 50 mg/kg, then two doses of 50 mg/kg) (title)

| pIC50 ([3]; read-out: TPH1 Range (TPH1 inhibition IC50)) | Compound | Efficacy (statistical significance of reduction of mucosal 5-HT concentrations relative to vehicle) [1] | Efficacy (statistical significance of reduction of mucosal 5-HT concentrations relative to vehicle) [2, 4] | Efficacy (statistical significance of reduction of mucosal 5-HT concentrations relative to vehicle) ([2]; (title)) | pIC50 ([3]; TPH1 Range (TPH1 inhibition IC50)) |
| --- | --- | --- | --- | --- | --- |
| – | CCOC(=O)[C@@H]1CC2(CCN(c3cc(O[C@H](c4cc(-c5ccc(C)c(C)c5)ccc4-n4ccc(C)n4)C(F)(F)F)nc(N)n3)CC2)CN1 [Example 63bn, (S)-ethyl 8-(2-amino-6-((R)-1-(3′,4′-dimethyl-4-(3-methyl-1H-pyrazol-1-yl)-[1,1′-biphenyl]-3-yl)-2,2,2-trifluoroethoxy)pyrimidin-4-yl)-2,8-diazaspiro[4.5]decane-3-carboxylate] | **** (and refers to P<0.0005) | **** (**** refers to P<0.0005) | – | – |
| – | CCOC(=O)[C@@H]1CC2(CCN(c3cc(O[C@H](c4ccc(Cl)cc4-c4cccc(S(N)(=O)=O)c4)C(F)(F)F)nc(N)n3)CC2)CN1 [Example 63ch, (S)-ethyl 8-(2-amino-6-((R)-1-(5-chloro-3′-sulfamoyl-[1,1′-biphenyl]-2-yl)-2,2,2-trifluoroethoxy)pyrimidin-4-yl)-2,8-diazaspiro[4.5]decane-3-carboxylate] | *** (*** refers to P<0.005) | *** (*** refers to P<0.005) | – | – |
| – | CCCc1ccc([C@@H](Oc2cc(N3CCC4(CC3)CN[C@H](C(=O)OCC)C4)nc(N)n2)C(F)(F)F)c(-n2ccc(C)n2)c1 [Example 63bf, (S)-ethyl 8-(2-amino-6-((R)-2,2,2-trifluoro-1-(2-(3-methyl-1H-pyrazol-1-yl)-4-propylphenyl)ethoxy)pyrimidin-4-yl)-2,8-diazaspiro[4.5]decane-3-carboxylate] | **** (and refers to P<0.0005) | *** (*** refers to P<0.005) | – | – |
| – | CCCCc1ccc([C@@H](Oc2cc(N3CCC4(CC3)CN[C@H](C(=O)OCC)C4)nc(N)n2)C(F)(F)F)c(-n2ccc(C)n2)c1 [Example 63bg, (S)-ethyl 8-(2-amino-6-((R)-1-(4-butyl-2-(3-methyl-1H-pyrazol-1-yl)phenyl)-2,2,2-trifluoroethoxy)pyrimidin-4-yl)-2,8-diazaspiro[4.5]decane-3-carboxylate] | **** (and refers to P<0.0005) | *** (*** refers to P<0.005) | – | – |
| – | CCCc1ccc(-n2ccc(C)n2)c([C@@H](Oc2cc(N3CCC4(CC3)CN[C@H](C(=O)OCC)C4)nc(N)n2)C(F)(F)F)c1 [Example 63bo, (S)-ethyl 8-(2-amino-6-((R)-2,2,2-trifluoro-1-(2-(3-methyl-1H-pyrazol-1-yl)-5-propylphenyl)ethoxy)pyrimidin-4-yl)-2,8-diazaspiro[4.5]decane-3-carboxylate] | **** (and refers to P<0.0005) | *** (*** refers to P<0.005) | – | – |
| – | Cc1ccn(-c2cc(-c3ccc(C)c(C)c3)ccc2[C@@H](Oc2cc(N3CCC4(CC3)CN[C@H](C(=O)O)C4)nc(N)n2)C(F)(F)F)n1 [Example 1m, (S)-8-(2-amino-6-((R)-1-(3′,4′-dimethyl-3-(3-methyl-1H-pyrazol-1-yl)-[1,1′-biphenyl]-4-yl)-2,2,2-trifluoroethoxy)pyrimidin-4-yl)-2,8-diazaspiro[4.5]decane-3-carboxylic acid] | *** (*** refers to P<0.005) | – | * (* refers to P<0.05) | > 7.30 |
| > 7.30 | COc1cc(-c2ccc([C@@H](Oc3cc(N4CCC5(CC4)CN[C@H](C(=O)O)C5)nc(N)n3)C(F)(F)F)c(-n3ccc(C)n3)c2)ccn1 [Example 1n, (S)-8-(2-amino-6-((R)-2,2,2-trifluoro-1-(4-(2-methoxypyridin-4-yl)-2-(3-methyl-1H-pyrazol-1-yl)phenyl)ethoxy)pyrimidin-4-yl)-2,8-diazaspiro[4.5]decane-3-carboxylic acid] | ** (** refers to P<0.01) | *** (*** refers to P<0.005) | – | – |
| – | CCOC(=O)c1ccc(-c2ccc(-n3ccc(C)n3)c([C@@H](Oc3cc(N4CCC5(CC4)CN[C@H](C(=O)OCC)C5)nc(N)n3)C(F)(F)F)c2)cc1 [Example 63dc, (S)-ethyl 8-(2-amino-6-((R)-1-(4′-(ethoxycarbonyl)-4-(3-methyl-1H-pyrazol-1-yl)-[1,1′-biphenyl]-3-yl)-2,2,2-trifluoroethoxy)pyrimidin-4-yl)-2,8-diazaspiro[4.5]decane-3-carboxylate] | *** (*** refers to P<0.005) | *** (*** refers to P<0.005) | – | – |
| – | CCOC(=O)[C@@H]1CC2(CCN(c3cc(O[C@H](c4ccc(-c5ccc6ncccc6c5)cc4)C(F)(F)F)nc(N)n3)CC2)CN1 [Example 63cl, (S)-ethyl 8-(2-amino-6-((R)-2,2,2-trifluoro-1-(4-(quinolin-6-yl)phenyl)ethoxy)pyrimidin-4-yl)-2,8-diazaspiro[4.5]decane-3-carboxylate] | *** (*** refers to P<0.005) | – | *** (*** refers to P<0.005) | – |
| – | CCOC(=O)[C@@H]1CC2(CCN(c3cc(O[C@H](c4ccc(Cl)cc4-n4ccc(C)n4)C(F)(F)F)nc(N)n3)CC2)CN1 [Example 63az, (S)-ethyl 8-(2-amino-6-((R)-1-(4-chloro-2-(3-methyl-1H-pyrazol-1-yl)phenyl)-2,2,2-trifluoroethoxy)pyrimidin-4-yl)-2,8-diazaspiro[4.5]decane-3-carboxylate] | *** (*** refers to P<0.005) | *** (*** refers to P<0.005) | – | – |
| – | CCOC(=O)[C@@H]1CC2(CCN(c3cc(O[C@H](c4ccc(-c5ccc(C)c(C)c5)cc4-n4ccc(C)n4)C(F)(F)F)nc(N)n3)CC2)CN1 [Example 63bd, (S)-ethyl 8-(2-amino-6-((R)-1-(3′,4′-dimethyl-3-(3-methyl-1H-pyrazol-1-yl)-[1,1′-biphenyl]-4-yl)-2,2,2-trifluoroethoxy)pyrimidin-4-yl)-2,8-diazaspiro[4.5]decane-3-carboxylate] | *** (*** refers to P<0.005) | *** (*** refers to P<0.005) | – | – |
| – | CCOC(=O)[C@@H]1CC2(CCN(c3cc(O[C@H](c4cc(CC)ccc4-n4ccc(C)n4)C(F)(F)F)nc(N)n3)CC2)CN1 [Example 63bp, (S)-ethyl 8-(2-amino-6-((R)-1-(5-ethyl-2-(3-methyl-1H-pyrazol-1-yl)phenyl)-2,2,2-trifluoroethoxy)pyrimidin-4-yl)-2,8-diazaspiro[4.5]decane-3-carboxylate] | **** (and refers to P<0.0005) | *** (*** refers to P<0.005) | – | – |
| – | CCOC(=O)[C@@H]1CC2(CCN(c3cc(O[C@H](c4ccc(Cl)cc4-c4cccc(S(C)(=O)=O)c4)C(F)(F)F)nc(N)n3)CC2)CN1 [Example 63cj, (S)-ethyl 8-(2-amino-6-((R)-1-(5-chloro-3′-(methylsulfonyl)-[1,1′-biphenyl]-2-yl)-2,2,2-trifluoroethoxy)pyrimidin-4-yl)-2,8-diazaspiro[4.5]decane-3-carboxylate] | *** (*** refers to P<0.005) | ** (** refers to P<0.01) | – | – |
